For test [1], the system named is polymorphonuclear leucocytes from rat pleural cavity. Description: release of β-glucuronidase by polymorphonuclear leucocytes from rat pleural cavity in vitro (PAF as irritant). The class given is cell-based. The essentials: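 Carrageenan-elicited pleural PMNs from Wistar rats (2.5×10^6 cells/ml, Dulbecco's buffer) were incubated with compound 15 min at 37° C, then cytochalasin B 5 min, then PAF 5 min. β-Glucuronidase in supernatant was assayed with phenolphthalein-glucuronic acid, 18 h at 37° C, OD 550 nm after NaOH.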

In test [2] the target is T1, PAF receptors of macrophages from mouse peritoneal cavity (Mus musculus, UniProt Q62035).
T1 construct: The cells in peritoneal cavity were collected after injection for 3-4 days; endogenous in cells; host or cells: adherent peritoneal macrophages of C57BL/6 mice (primary)
Description: competitive binding of [3H]-PAF to its receptors of macrophages from mouse peritoneal cavity. The note with it: 4° C, 150 min, read-out: Ki, competition with [3H]-PAF binding. The protocol: 4% of sodium mercaptoethanol was injected into C57BL/6 mouse peritoneal cavity to induce macrophages. The cells in peritoneal cavity were collected after injection for 3-4 days. 500 μl of suspension (5×10^5cells·ml^−1) was inoculated into 24-well culture plate which was placed into the incubator with 5% CO2 at 37° C for 2.5 hr. The non-adherent cells and serum in media were discarded. 490 μl of Tyrode-Hepes solution and 5 μl of [^3H]-PAF (final concentration: 2.8 nmol·L^−1) were added into each well. 5 μl of unlabeled PAF (5 μmol·L^1) was added into the well for the nonspecific binding. The series concentrations of compound were added into the well for the competitive binding and the corresponding volume of solvent was added into the wells for the total binding or the nonspecific binding. The reaction fluid was incubated at 4° C for 150 min and rinsed to wipe off the free labeled ligand. 300 μl of NaOH (0.3 mol·L^−1) was added to lyse the cells. The lysate fluid was transferred into a vial in which 7 ml of scintillation solution was added. The radioactivity strength was measured by scintillation counter.

Test [3] concerns macrophages from mouse peritoneal cavity. Description: chemotaxis of macrophages from mouse peritoneal cavity induced by PAF. Format: cell-based. The note with it: Macrophage, 2 hr, read-out: IC50, inhibition of chemotaxis. As to the method:
4% of sodium mercaptoethanol was injected into C57BL/6 mouse peritoneal cavity to induce macrophages. The cells in peritoneal cavity were collected after injection for 3-4 days. 27 μl of irritant was added into the well at low part of the chemotaxis plate. The filter membrane was covered on the wells and the top part of the plate was assembled on the filter. 55 μl of cells suspension with various concentrations of the compounds or solvent was added into the well at top part of the plate. The plate was placed into incubater with 5% CO2 at 37° C. for 2 hr. The filter was taken out, stained by hematoxylin and dehydrated. The cells migrated into the other side of the filter was counted by microscope.

The subject of test [4] is mouse ear edema induced by croton oil. Put plainly: mouse ear edema induced by croton oil. Format: in vivo. To be noted: orally, 50 mg·kg^−1, Kunming mice. As to the method:
Kuming mice (male, 18-22 g) were randomly divided into two groups (treatment and control) with 10 animals for each group. The animals were orally administrated with compounds or solvent, respectively. 1 hr later, 50 μl of 2% croton oil was smeared on the two sides of mouse left ear. After 4 hr the mice were sacrificed by cervical vertebra displacement. The two ears were cut off and the central sections were excised using a punch with a diameter of 8 mm and weighed. Edema was quantified as the weight difference between the two sections.

In test [5] the test system is rat paw swelling induced by carrageenan. Put plainly: rat paw swelling induced by carrageenan. Format: in vivo. To be noted: orally, 100 mg·kg^−1, Wistar rats. As to the method:
Wistar rats (male, 180±20 g) were randomly divided into two groups (treatment and control) with 10 animals for each group. The animals were orally administrated with the compound or solvent, respectively. 1 hr later, 100 μl of 1% carrageenan was intracutaneously injected into the sole of right posterior foot. The perimeter of the ankle joint inflamed was measured at indicated time. The swelling level was evaluated by the difference of perimeters between the inflamed foot and non-inflamed foot.

For test [6], the system named is angiogenesis of the chronic granulomatous air pouch in mice. Put plainly: angiogenesis of the chronic granulomatous air pouch in mice. Format: in vivo, mouse. The note with it: orally. The protocol:
3 ml of air was injected into the dorsal subcutaneous tissue. 24 hr later, 0.5 ml of 0.1% croton oil in Freund's complete adjuvant was injected into the air pouch. Meanwhile the compound or solvent was orally administrated everyday. At sixth day the mice were anaesthetized and kept at 40° C. for 10 min. 1 ml of 1% carmine red containing 5% gelatin was injected into the tail vein. The animal was kept at 0-4° C. for 2-3 hr. The air-pouch tissue was detached, dried in oven at 56° C. for 48 hr, weighed and cut to small pieces. 2 ml of digesting fluid was added into the tissue. The carmine red was solved by NaOH (5 mol·L^−1). The supernatant was isolated and filtered. The absorbance was measured at 540 nm. The content of carmine red was calculated according to the correct curve.

Test [7] relates to IgG in serum. Put plainly: IgG (antibody for anti-type II collagen) in serum of rat with arthritis induced by type II collagen. To be noted: Dose 100 mg · kg^−1 × 13 d, orally. The class given is in vivo. The protocol: 0.1 ml of type II H collagen (2 mg·ml^−1) was intracutaneously injected into the hind foot of Wistar rat (male, 100±10 g) (d0). Seven days later 0.1 ml of type II collagen was intracutaneously injected into the root of tail. At 19th day (d19) the animals inflamed were selected to supply the experiment and randomly divided into two groups. […] The perimeter of the ankle joint of two hind feet, weight of body was measured and the systemic inflammation (including the toes of front and hind feet, ears and tails) was judged by scoring every 3 days. At 41th day 40 μl of 0.2% type II collagen was intracutaneously injected into the right ear. Twenty-four hr later the edema level was evaluated by weighing the ponderance of ear piece (diameter: 8 mm). At 42th day the blood was collected by decapitating. The serum was separated by centrifugating. The contents of antibody for anti-type II collagen, cytokine TNF-α, IL-1β in serum were determined by ELISA kit.

The text below walks through data of patent publication US8524744B2, “Arylamine ketones, their preparation methods, the pharmaceutical composition containing them and their use” (Institute of Mataria Medica, Chinese Academy of Medical …, priority 2004, dated 2013).

The structures appear in SMILES notation. Where a name gives a salt, the structure may show the parent alone.

The term IC50 denotes the concentration that inhibits the measured activity by half. What is called Ki is a dissociation constant, usually derived from enzyme kinetics or from competition with a known ligand.

T1 sequence (Q62035 whole entry): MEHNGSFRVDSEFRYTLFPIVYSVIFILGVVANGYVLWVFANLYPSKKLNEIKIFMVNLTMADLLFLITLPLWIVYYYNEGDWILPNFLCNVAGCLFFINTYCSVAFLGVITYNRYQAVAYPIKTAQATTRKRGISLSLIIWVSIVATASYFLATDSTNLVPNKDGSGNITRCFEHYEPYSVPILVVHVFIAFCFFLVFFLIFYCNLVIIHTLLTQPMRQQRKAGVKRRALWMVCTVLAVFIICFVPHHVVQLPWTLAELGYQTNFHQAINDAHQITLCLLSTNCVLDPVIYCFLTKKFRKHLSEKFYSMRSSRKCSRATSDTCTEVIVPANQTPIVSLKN

With `CCOC(=O)C1CCN(CCC(=O)/C=C/c2ccc(Cl)cc2)CC1` [Compound 3, 5-[(4-Ethoxycarbonyl)piperidyl]-1-(4-chlorophenyl)-1-penten-3-one hydrochloride], the “Inhibition (%) of β-glucuronidase release” value in test [1] (Dose 2 × 10^−6 mol · L^−1, Irritant 1 × 10^−7 mol · L^−1) worked out at 142.96%. Further, the IC50 in test [1] (Leucocyte, rat polymorphonuclear leucocytes) amounted to 0.226 nM; in test [3], 0.477 nM. The Ki in test [2] turned out to be 4400 nM. Also, the “Inhibition (%) of mouse ear edema” value in test [4] is reported as 33.52%. Further, the “Inhibition (%) of rat paw swelling” value in test [5] (1 h) is 49.7%; in test [5] (2 h), 55.5%; in test [5] (3 h), 44.2%; in test [5] (4 h), 29.0%; in test [5] (5 h), 19.4%. Moreover, the results for the “Inhibition (%) of angiogenesis (content of carmine red)” value in test [6] (Dose 12.5 mg · kg^−1 × 5 d), in test [6] (Dose 25 mg · kg^−1 × 5 d) and in test [6] (Dose 50 mg · kg^−1 × 5 d) were 17.8%, 20.6% and 28.4%, respectively. Moreover, the “Inhibition (%) of production of IgG in serum” value in test [7] stood at 38.4%.
